Laboratory results reported in ChEMBL document CHEMBL3885861, “Open TG-GATES”.

Organism: Rattus norvegicus
Assay: Open TG-GATES - Regimen: Daily Repeat
Format: toxicity, organism-based, Sprague-Dawley
Parameters: regimen Daily Repeat, gender Male, age 6 weeks
Conditions: in vivo, po, route gavage; for APTT / Bas / Eos / Fbg / Hb / Ht / Lym / MCH / MCHC / MCV / Mono / Neu / PT / Plat / RBC / Ret / WBC: tissue Blood; for KIDNEY_L / KIDNEY_R / KIDNEY_TOTAL: tissue Kidney; for LIVER: tissue Liver; for A/G / ALP / ALT / AST / BUN / CRE / Ca / Cl / DBIL / GLC / IP / K / LDH / Na / PL / RALB / TBIL / TC / TG / TP / gamma-GTP: tissue Plasma
[1] = 50 mg/kg, 72 h, dose level Middle, time 3 day
[2] = 50 mg/kg, […], dose level Middle, time 7 day
[3] = 50 mg/kg, […], dose level Middle, time 14 day
[4] = 50 mg/kg, […], dose level Middle, time 28 day
[5] = 150 mg/kg, 72 h, dose level High, time 3 day
[6] = 150 mg/kg, […], dose level High, time 7 day
[7] = 150 mg/kg, […], dose level High, time 14 day
[8] = 150 mg/kg, […], dose level High, time 28 day

O=c1ccc2ccccc2o1 [COUMARIN]
TERMINAL_BW [1]: 194.4 g
APTT [1]: 14.9 s
Bas [1]: 0%
Eos [1]: 1.2%
Fbg [1]: 201.2 mg/dL
Hb [1]: 13.2 g/dL
Ht [1]: 40.2%
Lym [1]: 71.6%
MCH [1]: 21.3 pg
MCHC [1]: 33%
MCV [1]: 64.5 fL
Mono [1]: 6.2%
Neu [1]: 21%
PT [1]: 11.4 s
Plat [1]: 114.2 x10_4/uL
RBC [1]: 623.4 x10_4/ul
Ret [1]: 7.4%
WBC [1]: 101.6 x10_2/uL
KIDNEY_L [1]: 0.9 g
KIDNEY_R [1]: 0.9 g
KIDNEY_TOTAL [1]: 1.8 g
LIVER [1]: 10 g
A/G [1]: 1.9
ALP [1]: 1143 IU/L
ALT [1]: 43.8 IU/L
AST [1]: 65.4 IU/L
BUN [1]: 14.2 mg/dL
CRE [1]: 0.5 mg/dL
Ca [1]: 10.9 mg/dL
Cl [1]: 106 meq/L
DBIL [1]: 0.03 mg/dL
GLC [1]: 182.4 mg/dL
IP [1]: 7.6 mg/dL
K [1]: 5.2 meq/L
LDH [1]: 94 IU/L
Na [1]: 139.4 meq/L
PL [1]: 150.6 mg/dL
RALB [1]: 3.7 g/dL
TBIL [1]: 0.3 mg/dL
TC [1]: 95.4 mg/dL
TG [1]: 37 mg/dL
TP [1]: 5.7 g/dL
gamma-GTP [1]: 1.2 IU/L
TERMINAL_BW [2]: 221.4 g
TERMINAL_BW [3]: 270.1 g
TERMINAL_BW [4]: 361.7 g
APTT [2]: 16.9 s
Bas [2]: 0%
Eos [2]: 1%
Fbg [2]: 218 mg/dL
Hb [2]: 13.4 g/dL
Ht [2]: 39.9%
Lym [2]: 82.8%
MCH [2]: 21.3 pg
MCHC [2]: 33.4%
MCV [2]: 63.9 fL
Mono [2]: 3.2%
Neu [2]: 13.4%
PT [2]: 11.3 s
Plat [2]: 120.8 x10_4/uL
RBC [2]: 625 x10_4/ul
Ret [2]: 6.2%
WBC [2]: 135.8 x10_2/uL
APTT [3]: 17.5 s
Bas [3]: 0%
Eos [3]: 0.6%
Fbg [3]: 249 mg/dL
Hb [3]: 13.8 g/dL
Ht [3]: 41.7%
Lym [3]: 87%
MCH [3]: 20.1 pg
MCHC [3]: 33.2%
MCV [3]: 60.5 fL
Mono [3]: 3.8%
Neu [3]: 8.8%
PT [3]: 11.3 s
Plat [3]: 120.6 x10_4/uL
RBC [3]: 689.8 x10_4/ul
Ret [3]: 4.8%
WBC [3]: 163.9 x10_2/uL
APTT [4]: 19 s
Bas [4]: 0%
Eos [4]: 1%
Fbg [4]: 239.2 mg/dL
Hb [4]: 14.2 g/dL
Ht [4]: 42.4%
Lym [4]: 81%
MCH [4]: 19.1 pg
MCHC [4]: 33.6%
MCV [4]: 56.8 fL
Mono [4]: 4.2%
Neu [4]: 14.2%
PT [4]: 11.6 s
Plat [4]: 109.4 x10_4/uL
RBC [4]: 745.8 x10_4/ul
Ret [4]: 3.1%
WBC [4]: 125.8 x10_2/uL
KIDNEY_L [2]: 1 g
KIDNEY_R [2]: 1 g
KIDNEY_TOTAL [2]: 2.1 g
KIDNEY_L [3]: 1.2 g
KIDNEY_R [3]: 1.2 g
KIDNEY_TOTAL [3]: 2.3 g
KIDNEY_L [4]: 1.4 g
KIDNEY_R [4]: 1.4 g
KIDNEY_TOTAL [4]: 2.7 g
LIVER [2]: 11.3 g
LIVER [3]: 14.8 g
LIVER [4]: 19 g
A/G [2]: 2
ALP [2]: 996 IU/L
ALT [2]: 41 IU/L
AST [2]: 54.2 IU/L
BUN [2]: 15 mg/dL
CRE [2]: 0.6 mg/dL
Ca [2]: 11 mg/dL
Cl [2]: 104.8 meq/L
DBIL [2]: 0.04 mg/dL
GLC [2]: 193.6 mg/dL
IP [2]: 7.7 mg/dL
K [2]: 5 meq/L
LDH [2]: 98.8 IU/L
Na [2]: 139 meq/L
PL [2]: 164.6 mg/dL
RALB [2]: 3.9 g/dL
TBIL [2]: 0.3 mg/dL
TC [2]: 99.6 mg/dL
TG [2]: 36 mg/dL
TP [2]: 5.9 g/dL
gamma-GTP [2]: 1 IU/L
A/G [3]: 2
ALP [3]: 739.4 IU/L
ALT [3]: 34 IU/L
AST [3]: 53.8 IU/L
BUN [3]: 19.6 mg/dL
CRE [3]: 0.5 mg/dL
Ca [3]: 11.1 mg/dL
Cl [3]: 105.4 meq/L
DBIL [3]: 0.068 mg/dL
GLC [3]: 194 mg/dL
IP [3]: 6.8 mg/dL
K [3]: 4.8 meq/L
LDH [3]: 81.2 IU/L
Na [3]: 138.6 meq/L
PL [3]: 212.4 mg/dL
RALB [3]: 4.2 g/dL
TBIL [3]: 0.3 mg/dL
TC [3]: 115.8 mg/dL
TG [3]: 88.4 mg/dL
TP [3]: 6.4 g/dL
gamma-GTP [3]: 1 IU/L
A/G [4]: 1.7
ALP [4]: 603 IU/L
ALT [4]: 41.8 IU/L
AST [4]: 52 IU/L
BUN [4]: 21 mg/dL
CRE [4]: 0.6 mg/dL
Ca [4]: 11 mg/dL
Cl [4]: 105.2 meq/L
DBIL [4]: 0.022 mg/dL
GLC [4]: 183.4 mg/dL
IP [4]: 6.4 mg/dL
K [4]: 4.4 meq/L
LDH [4]: 66.2 IU/L
Na [4]: 139.4 meq/L
PL [4]: 195.6 mg/dL
RALB [4]: 4.3 g/dL
TBIL [4]: 0.3 mg/dL
TC [4]: 99.2 mg/dL
TG [4]: 104 mg/dL
TP [4]: 6.9 g/dL
gamma-GTP [4]: 1.6 IU/L
TERMINAL_BW [5]: 168.7 g
APTT [5]: 14.2 s
Bas [5]: 0%
Eos [5]: 1%
Fbg [5]: 193.7 mg/dL
Hb [5]: 14.6 g/dL
Ht [5]: 43.8%
Lym [5]: 80.8%
MCH [5]: 21 pg
MCHC [5]: 33.2%
MCV [5]: 63.2 fL
Mono [5]: 4.8%
Neu [5]: 13.6%
PT [5]: 11.5 s
Plat [5]: 117.7 x10_4/uL
RBC [5]: 693.6 x10_4/ul
Ret [5]: 3.5%
WBC [5]: 97.2 x10_2/uL
KIDNEY_L [5]: 0.8 g
KIDNEY_R [5]: 0.8 g
KIDNEY_TOTAL [5]: 1.6 g
LIVER [5]: 9.5 g
A/G [5]: 2.2
ALP [5]: 1111.8 IU/L
ALT [5]: 54.6 IU/L
AST [5]: 72 IU/L
BUN [5]: 16 mg/dL
CRE [5]: 0.5 mg/dL
Ca [5]: 10.9 mg/dL
Cl [5]: 106 meq/L
DBIL [5]: 0.072 mg/dL
GLC [5]: 178.2 mg/dL
IP [5]: 8 mg/dL
K [5]: 4.8 meq/L
LDH [5]: 162 IU/L
Na [5]: 139.6 meq/L
PL [5]: 168 mg/dL
RALB [5]: 3.8 g/dL
TBIL [5]: 0.3 mg/dL
TC [5]: 95.2 mg/dL
TG [5]: 30.2 mg/dL
TP [5]: 5.6 g/dL
gamma-GTP [5]: 1.8 IU/L
TERMINAL_BW [6]: 202.2 g
TERMINAL_BW [7]: 250.7 g
TERMINAL_BW [8]: 305.5 g
APTT [6]: 16.5 s
Bas [6]: 0%
Eos [6]: 1%
Fbg [6]: 236 mg/dL
Hb [6]: 13.3 g/dL
Ht [6]: 40.2%
Lym [6]: 81.2%
MCH [6]: 20.5 pg
MCHC [6]: 33%
MCV [6]: 62.2 fL
Mono [6]: 3.6%
Neu [6]: 14.2%
PT [6]: 11.5 s
Plat [6]: 121.9 x10_4/uL
RBC [6]: 646.6 x10_4/ul
Ret [6]: 5.4%
WBC [6]: 152.2 x10_2/uL
APTT [7]: 17.3 s
Bas [7]: 0%
Eos [7]: 1%
Fbg [7]: 238 mg/dL
Hb [7]: 13.5 g/dL
Ht [7]: 40.8%
Lym [7]: 77.6%
MCH [7]: 20 pg
MCHC [7]: 33.1%
MCV [7]: 60.5 fL
Mono [7]: 7.8%
Neu [7]: 13.8%
PT [7]: 11.4 s
Plat [7]: 129.9 x10_4/uL
RBC [7]: 674.8 x10_4/ul
Ret [7]: 5.1%
WBC [7]: 131.3 x10_2/uL
APTT [8]: 16.9 s
Bas [8]: 0%
Eos [8]: 1.2%
Fbg [8]: 229.8 mg/dL
Hb [8]: 14.7 g/dL
Ht [8]: 44.2%
Lym [8]: 79.4%
MCH [8]: 18.4 pg
MCHC [8]: 33.2%
MCV [8]: 55.3 fL
Mono [8]: 5.4%
Neu [8]: 14.2%
PT [8]: 11.4 s
Plat [8]: 120.2 x10_4/uL
RBC [8]: 800.8 x10_4/ul
Ret [8]: 2.9%
WBC [8]: 123.8 x10_2/uL
KIDNEY_L [6]: 0.9 g
KIDNEY_R [6]: 0.9 g
KIDNEY_TOTAL [6]: 1.8 g
KIDNEY_L [7]: 1.1 g
KIDNEY_R [7]: 1.1 g
KIDNEY_TOTAL [7]: 2.2 g
KIDNEY_L [8]: 1.2 g
KIDNEY_R [8]: 1.2 g
KIDNEY_TOTAL [8]: 2.4 g
LIVER [6]: 11.5 g
LIVER [7]: 14.4 g
LIVER [8]: 16.2 g
A/G [6]: 2
ALP [6]: 807 IU/L
ALT [6]: 43.8 IU/L
AST [6]: 54.4 IU/L
BUN [6]: 13 mg/dL
CRE [6]: 0.6 mg/dL
Ca [6]: 10.9 mg/dL
Cl [6]: 104.2 meq/L
DBIL [6]: 0.058 mg/dL
GLC [6]: 180.2 mg/dL
IP [6]: 7.2 mg/dL
K [6]: 4.9 meq/L
LDH [6]: 181 IU/L
Na [6]: 139.2 meq/L
PL [6]: 182.2 mg/dL
RALB [6]: 4.1 g/dL
TBIL [6]: 0.2 mg/dL
TC [6]: 101.4 mg/dL
TG [6]: 33.4 mg/dL
TP [6]: 6.2 g/dL
gamma-GTP [6]: 1.4 IU/L
A/G [7]: 1.9
ALP [7]: 789 IU/L
ALT [7]: 52.8 IU/L
AST [7]: 62.8 IU/L
BUN [7]: 16.8 mg/dL
CRE [7]: 0.6 mg/dL
Ca [7]: 11 mg/dL
Cl [7]: 106.4 meq/L
DBIL [7]: 0.072 mg/dL
GLC [7]: 181 mg/dL
IP [7]: 6.8 mg/dL
K [7]: 4.9 meq/L
LDH [7]: 188 IU/L
Na [7]: 139.8 meq/L
PL [7]: 198.6 mg/dL
RALB [7]: 4 g/dL
TBIL [7]: 0.2 mg/dL
TC [7]: 106.4 mg/dL
TG [7]: 49.4 mg/dL
TP [7]: 6.2 g/dL
gamma-GTP [7]: 1.2 IU/L
A/G [8]: 1.7
ALP [8]: 689.6 IU/L
ALT [8]: 67.2 IU/L
AST [8]: 63 IU/L
BUN [8]: 19.6 mg/dL
CRE [8]: 0.6 mg/dL
Ca [8]: 11.2 mg/dL
Cl [8]: 106.6 meq/L
DBIL [8]: 0.046 mg/dL
GLC [8]: 177.6 mg/dL
IP [8]: 6.8 mg/dL
K [8]: 4.6 meq/L
LDH [8]: 147.2 IU/L
Na [8]: 139.2 meq/L
PL [8]: 222.8 mg/dL
RALB [8]: 4.4 g/dL
TBIL [8]: 0.2 mg/dL
TC [8]: 121.8 mg/dL
TG [8]: 70.8 mg/dL
TP [8]: 6.9 g/dL
gamma-GTP [8]: 0.6 IU/L
